How the values were obtained:
[1] = test system: HT-1080; test: Modulatory profiling: Alamar Blue viability, lethal compound cotreated with death modulator (EC50, AUC); type: cell-based; design: AUC, modulator HT.3MA / AUC, modulator HT.ALLN / AUC HT.ATA / AUC HT.ActD / AUC HT.BHA / AUC HT.BHT / AUC HT.BocD / AUC HT.CHX / AUC HT.Co2+ / AUC HT.DPQ / AUC HT.EGTA / AUC HT.Lmim / AUC HT.NAD+ / AUC HT.Nec-1 / AUC HT.SP600125 / AUC HT.TLCK / AUC HT.U0126: unit not given beside the values; settings: for AUC HT.ATA: HT-1080, modulator ATA; for AUC HT.ActD: HT-1080, modulator ActD; for AUC HT.BHA: HT-1080, modulator BHA; for AUC HT.BHT: HT-1080, modulator BHT; for AUC HT.BocD: HT-1080, modulator BocD; for AUC HT.CHX: HT-1080, modulator CHX; for AUC HT.Co2+: HT-1080, modulator Co2+; for AUC HT.CspA: HT-1080, modulator CspA; for AUC HT.DPQ: HT-1080, modulator DPQ; for AUC HT.EGTA: HT-1080, modulator EGTA; for AUC HT.Gd3+: HT-1080, modulator Gd3+; for AUC HT.LNAME: HT-1080, modulator LNAME; for AUC HT.Lmim: HT-1080, modulator Lmim; for AUC HT.NAD+: HT-1080, modulator NAD+; for AUC HT.NMMA: HT-1080, modulator NMMA; for HT.atoc (AUC) / HT.bCarotene (AUC) / HT.deferox (AUC) / HT.digoxin (AUC) / HT.trolox (AUC) / HT.zVAD (AUC): HT-1080; for HT.atoc (AUC): modulator atoc; for HT.bCarotene (AUC): modulator bCarotene; for HT.deferox (AUC): modulator deferox; for HT.digoxin (AUC): modulator digoxin; for HT.trolox (AUC): modulator trolox; for HT.zVAD (AUC): modulator zVAD; for AUC, modulator HT.3MA / AUC, modulator HT.ALLN: HT-1080 cells, modulatory profile value (AUC); for AUC, modulator HT.3MA: lethal compound cotreated with modulator 3MA; for AUC, modulator HT.ALLN: lethal compound cotreated with modulator ALLN; on AUC HT.BHA: reference of the scale not given here; on AUC HT.EGTA: reference of the scale not given here
[2] = test system: BJeLR; test: as above; type: cell-based, human; design: AUC, modulator BJ.Gd3+ / AUC, modulator BJ.LNAME / AUC, modulator BJ.Lmin / AUC, modulator BJ.3MA / AUC, modulator BJ.ALLN / AUC, modulator BJ.Boc D / AUC, modulator BJ.CHX / AUC, modulator BJ.Co2+ / AUC, modulator BJ.Nec-1 / AUC, modulator BJ.Pepstatin / AUC, modulator BJ.TLCK / AUC, modulator BJ.atoc / AUC, modulator BJ.trolox / AUC, modulator BJ.zVAD: unit not given beside the values; settings: BJeLR cells, modulatory profile value (AUC); for AUC, modulator BJ.3MA: lethal compound cotreated with modulator 3MA; for AUC, modulator BJ.ALLN: lethal compound cotreated with modulator ALLN; for AUC, modulator BJ.Boc D: lethal compound cotreated with modulator Boc D; for AUC, modulator BJ.CHX: lethal compound cotreated with modulator CHX; for AUC, modulator BJ.Co2+: lethal compound cotreated with modulator Co2+; for AUC, modulator BJ.DPQ: lethal compound cotreated with modulator DPQ; for AUC, modulator BJ.Gd3+: lethal compound cotreated with modulator Gd3+; for AUC, modulator BJ.LNAME: lethal compound cotreated with modulator LNAME; for AUC, modulator BJ.Lmin/NAD+: lethal compound cotreated with modulator Lmin/NAD+; for AUC, modulator BJ.Lmin: lethal compound cotreated with modulator Lmin; for AUC, modulator BJ.NAD+: lethal compound cotreated with modulator NAD+; for AUC, modulator BJ.NMMA: lethal compound cotreated with modulator NMMA; for AUC, modulator BJ.Nec-1: lethal compound cotreated with modulator Nec-1; for AUC, modulator BJ.Pepstatin: lethal compound cotreated with modulator Pepstatin; for AUC, modulator BJ.TLCK: lethal compound cotreated with modulator TLCK; for AUC, modulator BJ.atoc: lethal compound cotreated with modulator atoc; for AUC, modulator BJ.trolox: lethal compound cotreated with modulator trolox; for AUC, modulator BJ.zVAD: lethal compound cotreated with modulator zVAD; on AUC, modulator BJ.3MA: reference of the scale not given here; on AUC, modulator BJ.ALLN: reference of the scale not given here; on AUC, modulator BJ.Boc D: reference of the scale not given here; on AUC, modulator BJ.CHX: reference of the scale not given here; on AUC, modulator BJ.Co2+: reference of the scale not given here; on AUC, modulator BJ.DPQ: reference of the scale not given here; on AUC, modulator BJ.Gd3+: reference of the scale not given here; on AUC, modulator BJ.LNAME: reference of the scale not given here; on AUC, modulator BJ.NAD+: reference of the scale not given here; on AUC, modulator BJ.NMMA: reference of the scale not given here; on AUC, modulator BJ.Nec-1: reference of the scale not given here; on AUC, modulator BJ.Pepstatin: reference of the scale not given here; on AUC, modulator BJ.TLCK: reference of the scale not given here

COc1cccc(-n2nnnc2S(C)(=O)=O)c1 [CIL16]
AUC HT.ATA [1]: 0.003965
AUC HT.ActD [1]: 0.01875
AUC HT.BHA [1]: −0.05937
AUC HT.BHT [1]: −0.1721
AUC HT.BocD [1]: 0.1414
AUC HT.CHX [1]: 0.08543
AUC HT.Co2+ [1]: 0.155
AUC HT.CspA [1]: 0.008389
AUC HT.DPQ [1]: −0.02205
AUC HT.EGTA [1]: −0.0002723
AUC HT.Gd3+ [1]: −0.0407
AUC HT.LNAME [1]: 0.01974
AUC HT.Lmim [1]: −0.05546
AUC HT.NAD+ [1]: 0.05126
AUC HT.NMMA [1]: −0.03154
HT.atoc (AUC) [1]: 0.1025
HT.bCarotene (AUC) [1]: −0.01322
HT.deferox (AUC) [1]: 0.05919
HT.digoxin (AUC) [1]: −0.01884
HT.trolox (AUC) [1]: −0.01524
HT.zVAD (AUC) [1]: 0.005482
AUC, modulator HT.3MA [1]: 0.02993
AUC, modulator HT.ALLN [1]: −0.03286
AUC, modulator BJ.3MA [2]: 0.05064
AUC, modulator BJ.ALLN [2]: −0.03491
AUC, modulator BJ.Boc D [2]: −0.04692
AUC, modulator BJ.CHX [2]: 0.01221
AUC, modulator BJ.Co2+ [2]: 0.07207
AUC, modulator BJ.DPQ [2]: −0.01732
AUC, modulator BJ.Gd3+ [2]: −0.02506
AUC, modulator BJ.LNAME [2]: −0.01278
AUC, modulator BJ.Lmin/NAD+ [2]: −0.05229
AUC, modulator BJ.Lmin [2]: −0.02238
AUC, modulator BJ.NAD+ [2]: −0.02177
AUC, modulator BJ.NMMA [2]: −0.01938
AUC, modulator BJ.Nec-1 [2]: 0.06903
AUC, modulator BJ.Pepstatin [2]: 0.02481
AUC, modulator BJ.TLCK [2]: −0.02516
AUC, modulator BJ.atoc [2]: −0.03351
AUC, modulator BJ.trolox [2]: 0.003689
AUC, modulator BJ.zVAD [2]: −0.006166

O=c1c(N2CCCC2)c(Cl)cnn1-c1ccccc1 [CIL20]
AUC HT.ATA [1]: −0.001276
AUC HT.ActD [1]: −0.006608
AUC HT.BHA [1]: 0.0001715
AUC HT.BHT [1]: −0.08075
AUC HT.BocD [1]: 0.01009
AUC HT.CHX [1]: 0.1212
AUC HT.Co2+ [1]: 0.1205
AUC HT.CspA [1]: −0.05648
AUC HT.DPQ [1]: −0.03779
AUC HT.EGTA [1]: −0.01805
AUC HT.Gd3+ [1]: −0.02607
AUC HT.LNAME [1]: 0.01703
AUC HT.Lmim [1]: 0.002914
AUC HT.NAD+ [1]: 0.05985
AUC HT.NMMA [1]: −0.0209
HT.atoc (AUC) [1]: 0.0292
HT.bCarotene (AUC) [1]: 0.008618
HT.deferox (AUC) [1]: 0.03912
HT.digoxin (AUC) [1]: 0.01851
HT.trolox (AUC) [1]: 0.03002
HT.zVAD (AUC) [1]: −0.02079
AUC, modulator HT.3MA [1]: 0.004881
AUC, modulator HT.ALLN [1]: 0.09673
AUC, modulator BJ.3MA [2]: 0.055
AUC, modulator BJ.ALLN [2]: −0.09098
AUC, modulator BJ.Boc D [2]: −0.06373
AUC, modulator BJ.CHX [2]: −0.009677
AUC, modulator BJ.Co2+ [2]: 0.04763
AUC, modulator BJ.DPQ [2]: −0.02696
AUC, modulator BJ.Gd3+ [2]: 0.04266
AUC, modulator BJ.LNAME [2]: −0.001747
AUC, modulator BJ.Lmin/NAD+ [2]: −0.03734
AUC, modulator BJ.Lmin [2]: −0.02603
AUC, modulator BJ.NAD+ [2]: 0.03043
AUC, modulator BJ.NMMA [2]: −0.01046
AUC, modulator BJ.Nec-1 [2]: 0.0115
AUC, modulator BJ.Pepstatin [2]: −0.002516
AUC, modulator BJ.TLCK [2]: −0.00743
AUC, modulator BJ.atoc [2]: −0.005113
AUC, modulator BJ.trolox [2]: 0.02308
AUC, modulator BJ.zVAD [2]: −0.04036
